Common to all, as to format: cell-based, human
Assay [1] has as its system Non-cancer cells (CK8/18-) of patient-derived NSCLC cultures. The assay can be described thus: Cytotoxicity in patient-derived NSCLC cultures, non-cancer cells. As to conditions: 7 days treatment. Here is the method: (§1) Tissue samples were collected during surgery, and the NSCLC diagnosis, histological grade, stage, necrosis, and lymph node invasion status were determined by histopathological analysis. […] The surgical specimens were placed in a sterile tube containing antibiotic-antimycotic solution (Sigma-Aldrich Chemie GmbH, Taufkirchen, Germany) and immediately transported to the research laboratory for further processing.
(§2) Upon arrival, the tissue was manually chopped with a surgical blade in a Petri dish under sterile conditions. The samples were cut into 3–5 mm pieces and further dissociated using the Tumor Dissociation Kit (Miltenyi Biotec, Bergisch Gladbach, Germany). The Tumor Dissociation Kit was used to dissociate the cells from the tumor tissue according to the manufacturer’s instructions. The samples were incubated in a 37 °C orbital shaker (KS 4000 ic control, IKA, Königswinter, Germany) at 300 rpm for 90 min. After incubation, the dissociated tissue was placed in DMEM/Ham’s F12 (1:3 ratio) growth medium supplemented with 5% fetal bovine serum (Corning, NY, USA), antibiotic-antimycotic solution, 4 µg/mL hydrocortisone (Sigma-Aldrich Chemie GmbH, Taufkirchen, Germany), 1 µg/mL insulin (Sigma-Aldrich Chemie GmbH, Taufkirchen, Germany), 10 ng/mL epidermal growth factor (BioLegend, San Diego, CA, USA), and 24 µg/mL adenine (Sigma-Aldrich Chemie GmbH, Taufkirchen, Germany). The DMEM and Ham’s F12 growth media were purchased from Sigma-Aldrich Chemie GmbH (Taufkirchen, Germany).
(§3) The dissociated tissue was cultured in T-25 cell culture flasks until cell attachment was observed before the medium was replaced. If no cell attachment was achieved within 7 days, the sample was discarded. Successful patient-derived cultures were maintained at 37 °C in a humidified atmosphere with 5% CO2 and grown to confluence before undergoing further experiments. […] Partial trypsinization was performed by detaching the fibroblast-like cells with 1 mL of 0.05% trypsin for 1 min at 37 °C, followed by 2 min at room temperature (RT).
(§4) Vinorelbine and pemetrexed were purchased from Selleckchem (Houston, TX, USA). Carboplatin, cisplatin, docetaxel, etoposide, gemcitabine, gefitinib, and paclitaxel were purchased from Sigma-Aldrich Chemie GmbH (Taufkirchen, Germany). The cisplatin, carboplatin, and gemcitabine were dissolved in sterile water, while the etoposide, docetaxel, vinorelbine, paclitaxel, gefitinib, and pemetrexed were dissolved in DMSO and stored at −20 °C. Before treatment, all the stock solutions were freshly diluted in sterile water.
(§5) The primary cells were seeded in black, clear bottom 384-well cell culture microplates (Thermo Fisher Scientific, Waltham, MA, USA) in 50 µL of cell growth medium at a density of 1000 cells per well. The compounds were administered 72 h after seeding. The treatment lasted 7 days.
(§6) The immunofluorescence assay for the quantification of MDR markers was optimized to distinguish cancer cells from stromal cells using a cytokeratin 8/18 (CK8/18) antibody cocktail. The cells were fixed with 4% paraformaldehyde for 20 min at RT and washed three times with PBS using the Wellwash Versa microplate washer (Thermo Fisher Scientific, Waltham, MA, USA). The cells were then blocked with 2% bovine serum albumin (BSA) in PBS for 1 h at RT. […] Co-immunostaining with antibodies against MDR markers was performed to detect the presence of ABCB1, ABCC1, and ABCG2 in both the cancer and stromal cells. […] The secondary antibodies were incubated with the cells at RT for 2 h in the dark. […] Finally, the cells were washed three times with PBS and stored at 4 °C in the dark before imaging.

In assay [2] the test system is ABCG2 expression in cancer cells (CK8/18+). The assay is described as follows: Immunofluorescence assay of ABCG2 expression in patient-derived NSCLC cultures. The note with it: 7 days. As for the experimental part:
as §1, §2, §3, §4, §5, §6

In assay [3] the test system is ABCC1 expression in non-cancer cells (CK8/18-). The assay can be described thus: Immunofluorescence assay of ABCC1 expression in patient-derived NSCLC cultures, non-cancer cells. The note with it: sample TR58, chemotherapeutics, 7 days. Here is the method: as §1, §2, §3, §4, §5, §6
Assay [4] relates to ABCG2 expression in non-cancer cells (CK8/18-). The assay is described as follows: Immunofluorescence assay of ABCG2 expression in patient-derived NSCLC cultures, non-cancer cells. As to conditions: sample TR58, chemotherapeutics, 7 days. Here is the method: as §1
Upon arrival, the tissue was manually chopped with a surgical blade in a Petri dish under sterile conditions. The samples were cut into 3–5 mm pieces and further dissociated using the Tumor Dissociation Kit (Miltenyi Biotec, Bergisch Gladbach, Germany). The Tumor Dissociation Kit was used to dissociate the cells from the tumor tissue according to the manufacturer’s instructions. The samples were incubated in a 37 °C orbital shaker (KS 4000 ic control, IKA, Königswinter, Germany) at 300 rpm for 90 min. […]
The immunofluorescence assay for the quantification of MDR markers was optimized to distinguish cancer cells from stromal cells using a cytokeratin 8/18 (CK8/18) antibody cocktail. […]

Where [5] appears, read: Homo sapiens, 168 h, culture TR58, non-cancer cells (CK8/18-).
Setting [6] is: Homo sapiens, 168 h, culture TR64, non-cancer cells (CK8/18-).
The mark [7] stands for this setting: Homo sapiens, 168 h, culture TR65, non-cancer cells (CK8/18-).
The mark [8] stands for this setting: Homo sapiens, 168 h, culture TR84, non-cancer cells (CK8/18-).
Setting [9] is: Homo sapiens, 168 h, culture TR87, non-cancer cells (CK8/18-).
Where [10] appears, read: culture TR58, cancer cells (CK8/18+).
[11] abbreviates: culture TR64, cancer cells (CK8/18+).
Where [12] appears, read: culture TR65, cancer cells (CK8/18+).
Setting [13] is: culture TR84, cancer cells (CK8/18+).
Where [14] appears, read: culture TR87, cancer cells (CK8/18+).

As a reminder, the IC50 is the concentration at which inhibition is half-maximal. As to `CC(=O)O[C@@]12CO[C@@H]1C[C@H](O)[C@@]1(C)C(=O)[C@H](O)C3=C(C)[C@@H](OC(=O)[C@H](O)[C@@H](NC(=O)OC(C)(C)C)c4ccccc4)C[C@@](O)([C@@H](OC(=O)c4ccccc4)[C@H]21)C3(C)C` [Docetaxel, docetaxel], the IC50 in assay [1] (setting [5]) is 1.59 µM; in assay [1] (setting [6]), 2.73 µM; in assay [1] (setting [7]), 0.461 µM; in assay [1] (setting [8]) it was 0.182 µM; in assay [1] (setting [9]), 3.05 µM. Further, the ABCG2 expression result in assay [2] (setting [10]) was “increase (An increase in ABCB1, ABCC1, or ABCG2 expression of at least 20% at a minimum of one concentration is shown in the table.)”; in assay [2] (setting [11]) it was “increase (An increase in ABCB1, ABCC1, or ABCG2 expression of at least 20% at a minimum of one concentration is shown in the table.)”; in assay [2] (setting [12]) it was “no change”; in assay [2] (setting [13]), “increase (An increase in ABCB1, ABCC1, or ABCG2 expression of at least 20% at a minimum of one concentration is shown in the table.)”; in assay [2] (setting [14]) it was “increase (An increase in ABCB1, ABCC1, or ABCG2 expression of at least 20% at a minimum of one concentration is shown in the table.)”. Besides, in assay [3], the “ABCC1 expression in CK8/18− cells” value is reported as “elevated”.
Turning to `COc1cc([C@@H]2c3cc4c(cc3[C@@H](O[C@@H]3O[C@@H]5CO[C@@H](C)O[C@H]5[C@H](O)[C@H]3O)[C@H]3COC(=O)[C@H]23)OCO4)cc(OC)c1O` [Etoposide, etoposide], the 50% inhibitory concentration (IC50) in assay [1] (setting [5]) was determined as 6.49 µM; in assay [1] (setting [6]), 18.1 µM; in assay [1] (setting [7]), 2.08 µM; in assay [1] (setting [8]), 1.01 µM; in assay [1] (setting [9]), 10.2 µM. For the same compound, the ABCG2 expression entry is on record as “no change” in assay [2] (setting [10]); “increase (An increase in ABCB1, ABCC1, or ABCG2 expression of at least 20% at a minimum of one concentration is shown in the table.)” in assay [2] (setting [11]); “increase (An increase in ABCB1, ABCC1, or ABCG2 expression of at least 20% at a minimum of one concentration is shown in the table.)” in assay [2] (setting [12]); “increase (An increase in ABCB1, ABCC1, or ABCG2 expression of at least 20% at a minimum of one concentration is shown in the table.)” in assay [2] (setting [13]); “increase (An increase in ABCB1, ABCC1, or ABCG2 expression of at least 20% at a minimum of one concentration is shown in the table.)” in assay [2] (setting [14]).
As to `Nc1nc2[nH]cc(CCc3ccc(C(=O)N[C@@H](CCC(=O)O)C(=O)O)cc3)c2c(=O)[nH]1` [Pemetrexed, pemetrexed], the half-inhibitory concentration (IC50) in assay [1] (setting [5]) is more than 300 µM; in assay [1] (setting [6]), more than 300 µM; in assay [1] (setting [7]) it was 25.2 µM; in assay [1] (setting [8]), more than 300 µM; in assay [1] (setting [9]) it was more than 300 µM. Further, the ABCG2 expression result in assay [2] (setting [10]) is recorded as “no change”; in assay [2] (setting [11]) it was “no change”; in assay [2] (setting [12]) it was “no change”; in assay [2] (setting [13]) it was “increase (An increase in ABCB1, ABCC1, or ABCG2 expression of at least 20% at a minimum of one concentration is shown in the table.)”; in assay [2] (setting [14]), “no change”.
`CCC1=C[C@@H]2CN(C1)Cc1c([nH]c3ccccc13)[C@@](C(=O)OC)(c1cc3c(cc1OC)N(C)[C@H]1[C@@](O)(C(=O)OC)[C@H](OC(C)=O)[C@]4(CC)C=CCN5CC[C@]31[C@@H]54)C2` [Vinorelbine]: the IC50 came out at 0.16 µM in assay [1] (setting [5]); 0.184 µM in assay [1] (setting [6]); 0.0328 µM in assay [1] (setting [7]); 0.0339 µM in assay [1] (setting [8]); 0.361 µM in assay [1] (setting [9]). Further, the ABCG2 expression result in assay [2] (setting [10]) is “increase (An increase in ABCB1, ABCC1, or ABCG2 expression of at least 20% at a minimum of one concentration is shown in the table.)”; in assay [2] (setting [11]), “increase (An increase in ABCB1, ABCC1, or ABCG2 expression of at least 20% at a minimum of one concentration is shown in the table.)”; in assay [2] (setting [12]) it was “increase (An increase in ABCB1, ABCC1, or ABCG2 expression of at least 20% at a minimum of one concentration is shown in the table.)”; in assay [2] (setting [13]), “increase (An increase in ABCB1, ABCC1, or ABCG2 expression of at least 20% at a minimum of one concentration is shown in the table.)”; in assay [2] (setting [14]), “increase (An increase in ABCB1, ABCC1, or ABCG2 expression of at least 20% at a minimum of one concentration is shown in the table.)”.
`N.N.[Cl][Pt][Cl]` [Cisplatin, cisplatin]: the IC50 in assay [1] (culture TR58, non-cancer cells (CK8/18-)) turned out to be 5.1 µM; in assay [1] (culture TR64, non-cancer cells (CK8/18-)) it was 8.26 µM; in assay [1] (culture TR65, non-cancer cells (CK8/18-)), 1.21 µM; in assay [1] (culture TR84, non-cancer cells (CK8/18-)), 0.789 µM; in assay [1] (culture TR87, non-cancer cells (CK8/18-)) it was 3.38 µM. Also, the ABCG2 expression result in assay [2] (setting [10]) is recorded as “increase (An increase in ABCB1, ABCC1, or ABCG2 expression of at least 20% at a minimum of one concentration is shown in the table.)”; in assay [2] (setting [11]) it was “increase (An increase in ABCB1, ABCC1, or ABCG2 expression of at least 20% at a minimum of one concentration is shown in the table.)”; in assay [2] (setting [12]) it was “increase (An increase in ABCB1, ABCC1, or ABCG2 expression of at least 20% at a minimum of one concentration is shown in the table.)”; in assay [2] (setting [13]), “increase (An increase in ABCB1, ABCC1, or ABCG2 expression of at least 20% at a minimum of one concentration is shown in the table.)”; in assay [2] (setting [14]), “increase (An increase in ABCB1, ABCC1, or ABCG2 expression of at least 20% at a minimum of one concentration is shown in the table.)”. Further, the “ABCG2 expression in CK8/18− cells” value in assay [4] is recorded as “increased”.
With `CC(=O)O[C@H]1C(=O)[C@@]2(C)[C@H]([C@H](OC(=O)c3ccccc3)[C@]3(O)C[C@H](OC(=O)[C@H](O)[C@@H](NC(=O)c4ccccc4)c4ccccc4)C(C)=C1C3(C)C)[C@]1(OC(C)=O)CO[C@@H]1C[C@@H]2O` [Paclitaxel, paclitaxel], the IC50 was 1.4 µM in assay [1] (setting [5]); 1.95 µM in assay [1] (setting [6]); 1.4 µM in assay [1] (setting [7]); 0.312 µM in assay [1] (setting [8]); 1.87 µM in assay [1] (setting [9]). For the same compound, the ABCG2 expression entry in assay [2] (setting [10]) is reported as “increase (An increase in ABCB1, ABCC1, or ABCG2 expression of at least 20% at a minimum of one concentration is shown in the table.)”; in assay [2] (setting [11]), “increase (An increase in ABCB1, ABCC1, or ABCG2 expression of at least 20% at a minimum of one concentration is shown in the table.)”; in assay [2] (setting [12]), “increase (An increase in ABCB1, ABCC1, or ABCG2 expression of at least 20% at a minimum of one concentration is shown in the table.)”; in assay [2] (setting [13]), “increase (An increase in ABCB1, ABCC1, or ABCG2 expression of at least 20% at a minimum of one concentration is shown in the table.)”; in assay [2] (setting [14]), “increase (An increase in ABCB1, ABCC1, or ABCG2 expression of at least 20% at a minimum of one concentration is shown in the table.)”. Also, the “ABCC1 expression in CK8/18− cells” value in assay [3] is recorded as “elevated”.
